Like-named read-outs stand apart in the source and are kept apart here.
Legend:
[1] = biological target: T1, α-Glucosidase from Saccharomyces cerevisiae (Saccharomyces cerevisiae, UniProt P53341); test: In vitro α-glucosidase inhibition assay; format: biochemical; conditions: pH 6.8, substrate p-nitrophenyl-α-D-glucopyranoside, NA = not active, failed to show 50% or more inhibition at 500 μM or more; for IC50: read-out: IC50 ± SEM, α-Glucosidase Inhibition
T1 construct: purchased Sigma Aldrich G0660-750UN
T1 sequence (P53341 whole entry): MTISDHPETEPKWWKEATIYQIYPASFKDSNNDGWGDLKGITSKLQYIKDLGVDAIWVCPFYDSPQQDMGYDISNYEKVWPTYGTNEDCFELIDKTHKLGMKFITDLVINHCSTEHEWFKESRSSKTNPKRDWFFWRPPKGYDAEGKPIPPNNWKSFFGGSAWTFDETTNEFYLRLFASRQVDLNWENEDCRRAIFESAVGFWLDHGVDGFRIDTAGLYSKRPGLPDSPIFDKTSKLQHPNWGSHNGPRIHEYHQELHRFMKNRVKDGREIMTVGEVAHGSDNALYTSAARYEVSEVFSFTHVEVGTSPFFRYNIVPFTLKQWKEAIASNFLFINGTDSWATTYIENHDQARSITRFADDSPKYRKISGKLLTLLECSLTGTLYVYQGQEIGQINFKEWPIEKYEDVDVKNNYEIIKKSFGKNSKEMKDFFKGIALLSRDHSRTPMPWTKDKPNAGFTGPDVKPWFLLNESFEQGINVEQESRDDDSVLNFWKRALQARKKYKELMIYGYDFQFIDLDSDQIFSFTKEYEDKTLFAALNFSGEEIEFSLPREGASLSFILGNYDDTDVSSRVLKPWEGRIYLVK
Procedure: α-Glucosidase inhibition assay was performed spectrophotometrically. α-Glucosidase from Saccharomyces cerevisiae (G0660-750UN, Sigma Aldrich), was dissolved in phosphate buffer (pH 6.8, 50 mM). Test compounds were dissolved in 70% DMSO. In 96-well plates, 20 μL of test sample, 20 μL of enzyme and 135 μL of buffer were added and incubated for 15 min at 37 °C. After incubation, 25 μL of p-nitrophenyl-α-D-glucopyranoside (0.7 mM, Sigma Aldrich) was added and change in absorbance was monitored for 30 min at 400 nm. Test compound was replaced with DMSO (7.5% final) in control. Acarbose (Sigma Aldrich) was used as a standard inhibitor [25, 26].
(§1) All reactions were performed in triplicate in a final volume of 200 μL. The results were processed using SoftMax Pro 4.8 software (Molecular Devices, Sunnyvale, CA, USA) and then using MS Excel. The percentage of inhibition was calculated by the following formula:
(§2) % Inhibition=100-(OD of test sample/OD of the control)×100

[2] = DPPH radical scavenging assay (in vitro antioxidant activity); conditions: DPPH 300 μM, 30 min at 37 °C, NA = not active, failed to show 50% or more inhibition at 500 μM or more; for IC50: read-out: IC50 ± SEM, DPPH Radical Scavenging Assay
Procedure: Test samples were allowed to react with stable free radical, 1,1-diphenyl-2-picrylhydrazyl radical (DPPH, Wako Chemicals, Shanghai, China) for half an hour at 37 °C. Various concentrations of test samples (prepared in DMSO) were incubated with DPPH (300 μM; prepared in ethanol). After incubation, decrease in absorption was measured at 515 nm by using a microplate reader (SpectraMax plus 384). Percentage radical scavenging activity (% RSA) of samples was determined in comparison with a DMSO-treated control group. Percentage of radical scavenging activity was calculated by using the formula given in statistical analysis section.
as §1, §2

PC-3 cell line = test: Anticancer (cytotoxic) activity, MTT colorimetric assay; format: cell-based; conditions: compounds 1–30 μM, n = 3, read-out: IC50 ± SEM, Anticancer Activity (PC-3 Cell line)
Procedure: Cytotoxic activity of compounds was evaluated in 96-well flat-bottomed microplates by using the standard MTT (3-[4,5-dimethylthiazole-2-yl]-2,5-diphenyl-tetrazolium bromide, MP) colorimetric assay. For this purpose, PC3 cells (Prostrate Cancer) were cultured in Dulbecco’s Modified Eagle Medium, supplemented with 10% of fetal bovine serum (FBS, PAA), 100 IU/mL of penicillin and 100 μg/mL of streptomycin in 75 cm^2 flasks, and kept in 5% CO2 incubator at 37 °C. Exponentially growing cells were harvested, counted with a haemocytometer, and diluted with a particular medium with 5% FBS. Cell culture with the concentration of 1 × 10^5 cells/mL was prepared and introduced (100 μL/well) into 96-well plates. After overnight incubation, medium was removed and 200 μL of fresh medium was added with different concentrations of compounds (1–30 μM). Stock solution, 20 mM of compounds were prepared in 100% DMSO, and the final concentration of DMSO at 30 μM is 0.15%. After 48 h, 200 μL MTT (0.5 mg/mL) was added to each well and incubated further for four hours. Subsequently, 100 μL of DMSO was added to each well. The extent of MTT reduction to formazan within cells was calculated by measuring the absorbance at 570 nm, using a microplate reader (SpectraMax plus, Molecular Devices, Sunnyvale, CA, USA). The cytotoxicity was recorded as concentration causing 50% growth inhibition (IC50) for PC3 cells. The percent inhibition was calculated by using the following formula:
% Inhibition=100-((mean of OD of test compound-mean of OD of negative control)/(mean of OD of positive control-mean of OD of negative control)×100).
The results (% inhibition) were processed by using SoftMax Pro software (Molecular Device, USA).

β-glucuronidase = biological target: T2, β-glucuronidase (Escherichia coli, UniProt P05804); test: In vitro β-glucuronidase inhibition assay; format: biochemical; conditions: substrate p-nitrophenyl-β-D-glucuronide, 37 °C; NA = not active, failed to show 50% or more inhibition at 500 μM or more; read-out: IC50 ± SEM, β-Glucuronidase Inhibition
T2 construct: purchased Sigma Aldrich G7396-25KU
T2 sequence (P05804 whole entry): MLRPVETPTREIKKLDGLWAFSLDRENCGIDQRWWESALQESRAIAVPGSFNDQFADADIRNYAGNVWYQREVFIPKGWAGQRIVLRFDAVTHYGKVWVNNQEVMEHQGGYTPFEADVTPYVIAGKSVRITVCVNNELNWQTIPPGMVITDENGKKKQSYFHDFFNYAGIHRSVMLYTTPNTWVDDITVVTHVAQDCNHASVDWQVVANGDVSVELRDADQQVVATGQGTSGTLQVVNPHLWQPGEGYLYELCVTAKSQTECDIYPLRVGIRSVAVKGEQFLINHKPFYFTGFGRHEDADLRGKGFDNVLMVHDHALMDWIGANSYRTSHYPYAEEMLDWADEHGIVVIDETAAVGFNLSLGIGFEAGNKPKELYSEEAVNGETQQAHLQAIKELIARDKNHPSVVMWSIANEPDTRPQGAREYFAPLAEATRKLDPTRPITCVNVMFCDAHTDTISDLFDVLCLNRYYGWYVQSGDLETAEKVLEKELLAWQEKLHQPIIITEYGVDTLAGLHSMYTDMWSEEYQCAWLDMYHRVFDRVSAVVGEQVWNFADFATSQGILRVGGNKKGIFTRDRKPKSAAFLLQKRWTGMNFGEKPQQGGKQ
Procedure: Results are presented here as means ± standard error mean from triplicate (n = 3) observation. IC50 Values were determined by using EZ-FIT, enzyme kinetics software by Perrella Scientific, Inc., USA.
β-Glucuronidase inhibitory activity was determined by the spectrophotometric method by measuring the absorbance at 405 nm of p-nitrophenol formed from the substrate p-nitrophenyl-β-D-glucuronide N1627-250 mg (Sigma Aldrich Co., 3050 spruce street, St. Louis, MO, USA). The total reaction volume was 250 μL. The compound (5 μL) was dissolved in DMSO (100%), which became 2% in the ultimate assay (250 μL) and similar conditions were used for standard (D-saccharic acid 1,4-lactone, Sigma Aldrich Co.). The reaction mixture contained 185 μL of 0.1 M acetate buffer, 5 μL of test compound solution, 10 μL of (1U) enzyme solution (G7396-25KU, Sigma Aldrich) was incubated at 37 °C for 30 min. The plates were read on a multiplate reader (SpectraMax plus 384) at 405 nm after the addition of 50 μL of 0.4 mM p-nitrophenyl-β-D-glucuronide. All assays were performed in triplicate. IC50 Values were calculated by using EZ-Fit software (Perrella Scientific Inc., Amherst, MA, USA). These values are the mean of three independent readings.

melting point [°C] | Compound | IC50 (β-glucuronidase) [µM] | IC50 (PC-3 cell line; Homo sapiens, PC-3, 48 h) [µM] | further results
248 | Cc1c(-c2ccnc(O)n2)sc2sc(-c3ccnc(O)n3)c(-c3ccccc3)c12 [Compound 4a, 4,4′-(3-Methyl-4-Phenylthieno[2,3-b]Thiophene-2,5-Diyl)Dipyrimidin-2-Ol] |  | > 30 | 
246 | Cc1c(-c2ccnc(N)n2)sc2sc(-c3ccnc(N)n3)c(-c3ccccc3)c12 [Compound 4c, 4,4′-(3-Methyl-4-Phenylthieno[2,3-b]Thiophene-2,5-Diyl)Dipyrimidin-2-Amine] |  |  | 

The next lines start with the compound.

Compound | melting point [°C] | IC50 (β-glucuronidase) [µM] | IC50 (PC-3 cell line; Homo sapiens, PC-3, 48 h) [µM] | further results
3,3′-(3-Methyl-4-Phenylthieno[2,3-b]Thiophene-2,5-Diyl)Bis(1-Phenyl-1H-Pyrazole) [Compound 5b] |  | 8.7 ± 0.1 |  | IC50 [1]: 58.4 ± 1.2 µM; IC50 [2]: 165 ± 2.8 µM; IC50 (PC-3 cell line; 48 h): > 30 µM
COc1cccc2c1C(=O)c1c(O)c3c(c(O)c1C2=O)C[C@@](O)(C(=O)CO)C[C@@H]3O[C@H]1C[C@H](N)[C@H](O)[C@H](C)O1 [Doxorubicin, reference compound] |  |  | 0.91 ± 0.1 | 
Cc1c(-c2ccnc3nc4ccccc4n23)sc2sc(-c3ccnc4nc5ccccc5n34)c(-c3ccccc3)c12 [Compound 7, 2,2′-(3-Methyl-4-Phenylthieno[2,3-b]Thiophene-2,5-Diyl)Bis(Benzo[4, 5]Imidazo[1,2-a] Pyrimidine)] | 245 |  | > 30 | 
CC(=O)N[C@@H](CS)C(=O)O [N-Acetylcysteine, reference compound] |  |  |  | IC50 [2]: 106 ± 1.1 µM
Cc1c(-c2ccnc3ncnn23)sc2sc(-c3ccnc4ncnn34)c(-c3ccccc3)c12 [Compound 6, 7,7′-(3-Methyl-4-Phenylthieno[2,3-b]Thiophene-2,5-Diyl)Di-[1,2, 4]Triazolo[1,5-a]Pyrimidine] | 245 |  | > 30 | 
Cc1c(-c2ccnc(S)n2)sc2sc(-c3ccnc(S)n3)c(-c3ccccc3)c12 [Compound 4b, 4,4′-(3-Methyl-4-Phenylthieno[2,3-b]Thiophene-2,5-Diyl)Dipyrimidin-2-Thiol] | 247 | 1.3 ± 0.2 | > 30 | IC50 ± SEM, α-Glucosidase Inhibition [1]: inactive; IC50 ± SEM, DPPH Radical Scavenging Assay [2]: inactive
O=C(O)[C@@H](O)[C@H]1OC(=O)[C@H](O)[C@H]1O [D-Saccharic acid 1,4-lactone, D-saccharic acid 1,4-lactone, reference compound] |  | 45.8 |  | 
Cc1c(C(=O)C=CN(C)C)sc2sc(C(=O)C=CN(C)C)c(-c3ccccc3)c12 [Compound 3, 1,1′-(3-Methyl-4-Phenylthieno[2,3-b]Thiophene-2,5-Diyl)Bis(3-(Dimethylamino)Prop-2-En-1-One)] | 250 |  | > 30 | 
Cc1c(-c2cc[nH]n2)sc2sc(-c3cc[nH]n3)c(-c3ccccc3)c12 [Compound 5a, 3,3′-(3-Methyl-4-Phenylthieno[2,3-b]Thiophene-2,5-Diyl)Bis(1H-Pyrazole)] | 177 | 2.3 ± 0.4 | 22.5 ± 0.1 | IC50 [1]: 22 ± 0.3 µM; IC50 ± SEM, DPPH Radical Scavenging Assay [2]: no antioxidant activity

From publication PMC3634413, “Synthesis of Thieno[2,3-b]thiophene Containing Bis-Heterocycles-Novel Pharmacophores” (International Journal of Molecular Sciences, 2013)
